pEC50: −log10 of the molar value.
Assays:
[1] = tested on: Wnt pathway activity (SW480 colon carcinoma cells stably expressing the Sp5-Luc reporter); experiment: Wnt pathway activity screening assay (Sp5-Luc reporter gene assay); conditions: Homo sapiens, SW480, Table 4; SW480 cells stably expressing Sp5-Luc reporter, 10-point dose-response from 10 μM, 36 to 48 hours
CLK2 kinase = CLK2 kinase (Homo sapiens, UniProt P49760); experiment: CLK2 kinase activity assay (Z-lyte FRET); format: biochemical; conditions: Z-lyte Ser/Thr 6 peptide, 60 μM ATP, 1 h at room temperature;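 note: FRET read-out as coumarin to fluorescein emission ratio, unphosphorylated peptide as 0% and phosphorylated peptide as 100% controls, duplicate reactions, non-linear regression fit of dose-response curves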
Procedure: This is a non-radioactive assay using fluorescence resonance energy transfer (FRET) between coumarin and fluorescein to detect kinase activity which is represented as a ratio of coumarin emission/fluorescein emission.
The mixture was allowed to incubate with the representative compounds for one hour at room temperature. All reactions were performed in duplicate. Unphosphorylated (“0% Control”) and phosphorylated (“100% control”) forms of Ser/Thr 6 served as control reactions. Additionally, an 11-point dose-response curve of Staurosporine (1 μM top) was run to serve as a positive compound control.
After incubation, Development Reagent A was diluted in Development Buffer then added to the reaction and allowed to further incubate for one hour at room temperature.
Dose-response curves were generated and inhibitory concentration (IC50) values were calculated using non-linear regression curve fit in the Dotmatics' Studies Software (Bishops Stortford, UK).

[2] = tested on: primary human mesenchymal stem cells (hMSCs); experiment: Chondrogenesis screening using primary human mesenchymal stem cells; format: cell-based; conditions: Homo sapiens, Mesenchymal stem cells, hMSC chondrogenesis; for Emax: maximum activity relative to TGF-β3 (10 ng/mL) positive control, read-out: Max. Activity as % TGF-β3 activity; for EC50: concentration required to induce 50% levels of chondrogenesis with TGF-β3 as positive control, read-out: Conc (nM) of 50% TGF-β3 activity
How it was run: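 Derived values are EC50 for 50% chondrogenesis, maximal activity and the dose giving it. These come from nodule area in passage 3–6 primary hMSCs, expressed as fold change over the mean of 3 same-plate DMSO wells, 2–3 replicates per concentration. TGF-β3 served as positive control.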

CLK3 kinase = CLK3 kinase (Homo sapiens, UniProt P49761); experiment: CLK3 kinase activity assay (Z-lyte FRET); format: biochemical; conditions: Z-lyte Ser/Thr 18 peptide, 156 μM ATP, 1 h at room temperature;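 note: kinase activity read as coumarin/fluorescein emission ratio by FRET, unphosphorylated peptide as 0% and phosphorylated peptide as 100% control, values from non-linear regression of dose-response curves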
Chain of CLK3 kinase (P49761 whole entry): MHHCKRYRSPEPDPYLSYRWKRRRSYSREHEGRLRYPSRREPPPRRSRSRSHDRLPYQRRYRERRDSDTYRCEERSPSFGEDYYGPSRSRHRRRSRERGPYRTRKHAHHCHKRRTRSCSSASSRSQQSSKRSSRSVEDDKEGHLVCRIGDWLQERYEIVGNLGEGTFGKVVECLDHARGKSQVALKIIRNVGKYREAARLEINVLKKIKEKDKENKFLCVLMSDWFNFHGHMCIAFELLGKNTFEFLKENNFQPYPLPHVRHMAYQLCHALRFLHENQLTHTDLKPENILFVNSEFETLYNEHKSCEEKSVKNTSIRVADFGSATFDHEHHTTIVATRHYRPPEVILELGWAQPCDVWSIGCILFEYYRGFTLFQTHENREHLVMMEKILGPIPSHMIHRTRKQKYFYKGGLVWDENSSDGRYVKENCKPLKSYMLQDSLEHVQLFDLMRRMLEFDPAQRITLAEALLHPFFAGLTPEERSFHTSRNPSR

Chain of CLK2 kinase (P49760 whole entry): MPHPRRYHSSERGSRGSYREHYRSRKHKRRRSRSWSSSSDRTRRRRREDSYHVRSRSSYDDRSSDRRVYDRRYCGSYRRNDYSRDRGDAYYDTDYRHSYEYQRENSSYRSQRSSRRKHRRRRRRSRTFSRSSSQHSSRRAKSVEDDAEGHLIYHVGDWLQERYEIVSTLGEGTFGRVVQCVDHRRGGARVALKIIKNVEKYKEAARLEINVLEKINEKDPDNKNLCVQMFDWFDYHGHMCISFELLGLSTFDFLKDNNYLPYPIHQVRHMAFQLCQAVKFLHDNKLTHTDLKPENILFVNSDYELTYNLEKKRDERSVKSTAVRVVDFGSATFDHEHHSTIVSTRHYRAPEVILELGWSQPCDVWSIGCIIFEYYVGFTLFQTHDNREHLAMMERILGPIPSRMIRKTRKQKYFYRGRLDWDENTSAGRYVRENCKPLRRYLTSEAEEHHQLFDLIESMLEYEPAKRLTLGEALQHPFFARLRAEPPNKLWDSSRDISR

Row | SMILES | pEC50 [1] | pEC50 (CLK2 kinase) | Emax [2] [%] | pEC50 (CLK3 kinase) | EC50 [2] [nM]
1 | CN1CCN(c2nccc3[nH]c(-c4n[nH]c5ncc(-c6cncc(NC(=O)C7CCCC7)c6)cc45)cc23)CC1 [compound 481] | < 5.00 | 8.05 | 30.3 | 6.13 | 
2 | CN1CCN(c2nccc3[nH]c(-c4n[nH]c5ccc(-c6cncc(NC(=O)C7CCCCC7)c6)cc45)cc23)CC1 [compound 482] | 5.28 | 7.85 | 37.8 | 5.62 | 
3 | CN1CCN(c2nccc3[nH]c(-c4n[nH]c5cnc(-c6cncc(NC(=O)C7CCCCC7)c6)cc45)cc23)CC1 [compound 483] | 5.47 | 8.10 | 60.8 | 6.52 | 10
4 | CN1CCN(c2nccc3[nH]c(-c4n[nH]c5ccc(-c6cncc(NC(=O)CC7CCNCC7)c6)cc45)cc23)CC1 [compound 484] | < 5.00 | 8.22 | 42.8 | 6.37 | 
5 | CN1CCN(c2cncc3[nH]c(-c4n[nH]c5ccc(-c6cncc(NC(=O)CC7CCNCC7)c6)cc45)cc23)CC1 [compound 485] | < 5.00 | 8.40 | 289 | 6.52 | 
6 | CN1CCN(c2nccc3[nH]c(-c4n[nH]c5ccc(-c6cncc(NC(=O)c7ccccc7)c6)cc45)cc23)CC1 [compound 486] | 5.67 | 8.22 | 34.6 | 6.54 | 
7 | CN1CCN(c2nccc3[nH]c(-c4n[nH]c5cnc(-c6cncc(NC(=O)c7ccccc7)c6)cc45)cc23)CC1 [compound 487] | 5.55 | 8.30 | 67 | 6.52 | 10
8 | CN1CCN(c2ccnc3[nH]c(-c4n[nH]c5ccc(-c6cncc(NC(=O)c7ccccc7)c6)nc45)cc23)CC1 [compound 488] | 5.22 | 8.52 | 61.8 | 5.60 | 10
9 | CN1CCN(c2ccnc3[nH]c(-c4n[nH]c5cnc(-c6cncc(CNCC7CCCC7)c6)cc45)cc23)CC1 [compound 489] | < 5.00 | 7.72 | 150 | 6.47 | 300
10 | CN(C)Cc1cncc(-c2cc3c(-c4cc5c(N6CCN(C)CC6)nccc5[nH]4)n[nH]c3cn2)c1 [compound 491] | 5.41 | 7.70 | 13.9 | 5.71 | 
11 | CN1CCN(c2nccc3[nH]c(-c4n[nH]c5ccc(-c6cncc(CN7CCCC7)c6)cc45)cc23)CC1 [compound 492] | 5.03 | 7.92 | 31 | 6.05 | 
12 | CN1CCN(c2cccc3[nH]c(-c4n[nH]c5ccc(-c6cncc(CN7CCCCC7)c6)cc45)cc23)CC1 [compound 493] | 5.30 | 8.22 | 198 | 6.04 | 100
13 | CN1CCN(c2nccc3[nH]c(-c4n[nH]c5ccc(-c6cncc(CN7CCCCC7)c6)nc45)cc23)CC1 [compound 496] | 5.38 | 8.22 | 70.8 | 6.28 | 10
14 | CN1CCN(c2ccnc3[nH]c(-c4n[nH]c5ncc(-c6cn[nH]c6)cc45)cc23)CC1 [compound 497] | < 5.00 | 8.30 | 20.1 | 6.17 | 
15 | CCCCC(=O)Nc1cncc(-c2ccc3[nH]nc(-c4cc5c(-c6ccoc6)cncc5[nH]4)c3c2)c1 [compound 499] | 6.04 | 8.52 | 122 | 7.38 | 
16 | CC(C)(C)CC(=O)Nc1cncc(-c2ccc3[nH]nc(-c4cc5c(-c6ccoc6)ccnc5[nH]4)c3c2)c1 [compound 500] | 6.05 | 7.92 | 21.2 | 6.93 | 
17 | O=C(CC1CCNCC1)Nc1cncc(-c2ccc3[nH]nc(-c4cc5c(-c6ccoc6)ccnc5[nH]4)c3n2)c1 [compound 501] | < 5.00 | 7.96 | 102 | 6.38 | 10

Source: patent US20230000842A1, “METHODS OF TREATING CARTILAGE DISORDERS THROUGH INHIBITION OF CLK AND DYRK” (SAMUMED, LLC, priority 2019, published 2023)
